The first assay has as its target T1, MeCP2-TBL1 interaction (MeCP2-SmBiT / TBL1-LgBiT) (Mus musculus, UniProt Q9QXE7).
T1 construct: expressed in transfected cells; crude lysate used as a cell-free assay
T1 sequence (Q9QXE7 166-527): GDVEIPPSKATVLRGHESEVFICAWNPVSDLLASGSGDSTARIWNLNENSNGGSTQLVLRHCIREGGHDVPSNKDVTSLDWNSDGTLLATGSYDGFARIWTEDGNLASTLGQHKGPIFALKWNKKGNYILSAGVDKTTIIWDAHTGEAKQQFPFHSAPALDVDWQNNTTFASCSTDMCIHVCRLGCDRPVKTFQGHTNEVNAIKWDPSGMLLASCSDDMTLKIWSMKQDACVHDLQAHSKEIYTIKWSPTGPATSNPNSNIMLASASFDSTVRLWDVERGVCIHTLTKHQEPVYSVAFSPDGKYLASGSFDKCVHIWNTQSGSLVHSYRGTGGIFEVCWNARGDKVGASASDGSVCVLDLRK
The assay can be described thus: MeCP2-TBL1 NanoLuc luciferase complementation assay (cell-free, extracts of transfected HEK293 cells).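 Further: each compound tested at 20 µM final concentration.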 In kind it is binding, human. The following applies: primary screen of Asinex library, single well per compound. Put shortly:
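Cell-free split NanoLuc: lysate of HEK293 cells co-expressing the MeCP2 C-terminal half-SmBiT and TBL1 WD domain-LgBiT, mixed 1:1 with furimazine. After 30 min at room temperature, luminescence was plate-median normalized.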
For `COc1cccc([C@@H]2C[C@]3(C)NC(=O)CCCC[C@@H]3N2CC(=O)Nc2ccc(N3CCCC3)cc2)c1` [BDH_33614614], the Inhibition percent is on record as -1.03.

On to `Cc1nc2ccc(NC(=O)CN3C[C@@H](c4cc(F)cc(F)c4)[C@@]4(CCCCC(=O)N4)C3)cc2[nH]1` [BDH_33616136], for which the Inhibition percent is -1.00.

With `Cc1n[nH]c(C)c1NC(=O)CN1C[C@@H](c2cc(F)cc(F)c2)[C@@]2(CCCCC(=O)N2)C1` [BDH_33616713], the Inhibition percent is -0.00541.

Regarding `C[C@]12C[C@@H](c3ccccc3)N(CC(=O)Nc3ccc4c(c3)OCCO4)[C@H]1CCCCCN2` [BDH_33617257], the Inhibition percent is -2.26.

In the case of `CC(=O)N[C@H]1C[C@@H](C(=O)N(C)C)N(CC(=O)Nc2ccc3c(c2)OCCO3)[C@H]1c1ccccc1` [BDH_33617336], the Inhibition percent is -1.52.

In the case of `COc1cccc([C@@H]2C[C@]3(C)NC(=O)CCCC[C@@H]3N2CC(=O)Nc2cc(C)ccc2F)c1` [BDH_33619764], the Inhibition percent is listed as -0.65.

In the case of `CC(=O)N[C@@]12CCN(CC(=O)Nc3cc(C)ccc3F)C[C@@H]1[C@@H](c1ccccc1)N(C(C)=O)C2` [BDH_33619766], the Inhibition percent is given as -3.87.

In the case of `COc1cccc([C@@H]2C[C@]3(C)NC(=O)CCCC[C@@H]3N2CC(=O)Nc2ccn(C)n2)c1` [BDH_33620384], the Inhibition percent was -2.63.

Consider `O=C(CN1CCNCC1c1ccc(C(F)(F)F)cc1)NC(c1ccccc1)c1ccccc1` (stereo not drawn) [BDH_33620941], for which the Inhibition percent is -0.43.

Consider `COc1cccc([C@@H]2C[C@]3(C)NC(=O)CCCC[C@@H]3N2CC(=O)Nc2cc(F)ccc2C)c1` [BDH_33620981], for which the Inhibition percent is -1.41.

`COc1ccc(NC(C)=O)c(NC(=O)CN2C[C@H]3CCC[C@H](Cc4cnccn4)[C@H]3C2)c1` [BDH_33621771]: the Inhibition percent came to 0.12.

Staying with this assay, now noted: primary screen of the Asinex library, sheet "Sargen output Asinex library", one well per compound.
On to `COc1ccc([C@@H]2C[C@]3(C)NC(=O)CCC[C@@H]3N2CC2(O)CCN(c3cccc(OC)c3)CC2)cc1` [BDH_33611075], for which the Inhibition percent amounted to 1.71%.

Consider `COc1ccc([C@@H]2[C@H]3CCCC[C@@]3(O)CCN2CC(=O)Nc2ccc(N3CCOCC3)cc2)cc1` [BDH_33614948], for which the Inhibition percent was found to be 1.72%.

For `COc1cccc([C@@H]2C[C@]3(C)NC(=O)CCCC[C@@H]3N2CC(=O)Nc2ccc3[nH]c(=O)[nH]c3c2)c1` [BDH_33615500], the Inhibition percent was -1.75%.

In the case of `CC(=O)N[C@@H]1C[C@@H](C(=O)N(C)C)N(CC(=O)Nc2ccc3[nH]c(=O)[nH]c3c2)[C@H]1c1ccccc1` [BDH_33615574], the Inhibition percent is reported as -1.45%.

With `CC(=O)N1CCN(CC(=O)NCCc2nc3ccccc3[nH]2)CC1c1ccc(C(F)(F)F)cc1` (stereo not drawn) [BDH_33616082], the Inhibition percent is recorded as -1.86%.

Consider `C[C@]12C[C@@H](Cc3ccccc3)N(CC(=O)NCCc3nc4ccccc4[nH]3)[C@H]1CCCC(=O)N2` [BDH_33616100], for which the Inhibition percent is -2.04%.

In the case of `CC(=O)N[C@H]1C[C@@H](C(=O)N(C)C)N(CC(=O)Nc2cccc(C(F)(F)F)c2)[C@H]1c1ccccc1` [BDH_33616368], the Inhibition percent is on record as -1.15%.

With `CC(=O)N[C@@]12CN(CC(=O)Nc3cccc(C(F)(F)F)c3)CC[C@@H]1[C@@H](c1ccccc1)N(C)C2` [BDH_33616433], the Inhibition percent is reported as -0.29%.

For the molecule `NC(=O)C1CN(Cc2ccccc2)CCN1CC(=O)Nc1ccccc1C(F)(F)F` (stereo not drawn) [BDH_33617130], the Inhibition percent was -2.26%.

Turning to `CC(=O)N[C@@]12CN(C)CC[C@@H]1[C@@H](c1ccccc1)N(CC(=O)Nc1ccc3c(c1)OCCO3)C2` [BDH_33617398], the Inhibition percent is -1.20%.

In the case of `CCn1c(=O)oc2cc(NC(=O)CN3C[C@]4(NC(C)=O)CN(C)CC[C@@H]4[C@H]3c3ccccc3)ccc21` [BDH_33617644], the Inhibition percent is -0.000394%.

Take `COc1cccc([C@@H]2C[C@]3(C)NC(=O)CCCC[C@@H]3N2CC(=O)Nc2ccc3c(c2)nc(C)n3C)c1` [BDH_33617989]: the Inhibition percent worked out at 1.66%.

For the molecule `COc1ccc(C)c(NC(=O)CN2CC[C@@H]3[C@@H](c4ccccc4)N(C(C)=O)C[C@]3(NC(C)=O)C2)c1` [BDH_33618463], the Inhibition percent is -3.37%.

As to `O=C(CN1C[C@@H](c2cc(F)cc(F)c2)[C@@]2(CCCCC(=O)N2)C1)Nc1ccnn1C1CCCC1` [BDH_33619464], the Inhibition percent was 4.29%.

`CC(=O)N[C@@]12CN(CC(=O)Nc3cc(C)ccc3F)CC[C@@H]1[C@@H](c1ccccc1)N(C(C)=O)C2` [BDH_33619769]: the Inhibition percent is on record as -1.76%.

With `CC(=O)N[C@@]12CN(C(C)=O)CC[C@@H]1[C@@H](c1ccccc1)N(CC(=O)Nc1cc(F)ccc1C)C2` [BDH_33621128], the Inhibition percent came to 1.60%.

On to `CC(=O)N[C@@]12CN(C)CC[C@@H]1[C@@H](c1ccccc1)N(CC(=O)Nc1cccc(C)c1C)C2` [BDH_33621433], for which the Inhibition percent was -4.50%.

With `CC(=O)N[C@@]12CN(C(C)=O)CC[C@@H]1[C@@H](c1ccccc1)N(CC(=O)Nc1cccc(C)c1C)C2` [BDH_33621434], the Inhibition percent came out at 5.23%.

The assay is the same for the next values; noted with them: primary screen of the Asinex library, sheet "Sargen output Asinex library", one well per compound, Batch Ref. 1.
`COc1ccc(N2CCN(CC3(O)CCN(c4cccc(C)c4)CC3)C(C(N)=O)C2)cc1` (stereo not drawn) [BDH_33612322]: the Inhibition percent is reported as -0.28%.

For the molecule `COc1cccc([C@@H]2C[C@]3(C)NC(=O)CCCC[C@@H]3N2CC(=O)NCCc2nc3ccccc3[nH]2)c1` [BDH_33615965], the Inhibition percent was 0.09%.

In the case of `CC(=O)N[C@@]12CN(CC(=O)Nc3ccc4nc(C)[nH]c4c3)CC[C@@H]1[C@@H](c1ccccc1)N(C(C)=O)C2` [BDH_33616134], the Inhibition percent stood at 1.14%.

On to `Cc1nc2ccc(NC(=O)CN3CC[C@@]4(C)[C@@H]3CCCCC(=O)N4Cc3ccc(F)cc3)cc2[nH]1` [BDH_33616216], for which the Inhibition percent is listed as 6.38%.

Take `C[C@]12C[C@@H](Cc3ccccc3)N(CC(=O)Nc3cccc(C(F)(F)F)c3)[C@H]1CCCC(=O)N2` [BDH_33616434]: the Inhibition percent was 6.90%.

Turning to `Cc1nc2cc(NC(=O)CN3C[C@@H](c4cc(F)cc(F)c4)[C@@]4(CCCCC(=O)N4)C3)ccc2n1C` [BDH_33617993], the Inhibition percent worked out at 1.15%.

For the molecule `CC(=O)N[C@@]12CN(C)CC[C@@H]1[C@@H](c1ccccc1)N(CC(=O)Nc1ccc3c(c1)nc(C)n3C)C2` [BDH_33618117], the Inhibition percent is recorded as 4.04%.

For the molecule `COc1ccc([C@@H]2C[C@]3(C)NC(=O)CCC[C@@H]3N2CC(=O)Nc2ccc3c(c2)nc(C)n3C)cc1` [BDH_33618124], the Inhibition percent is 4.89%.

On to `COc1ccc(C)c(NC(=O)CN2CC[C@@]3(NC(C)=O)CN(C(C)=O)[C@H](c4ccccc4)[C@H]3C2)c1` [BDH_33618460], for which the Inhibition percent is on record as 1.43%.

As to `CC(=O)N[C@H]1C[C@@H](C(=O)N(C)C)N(CC(=O)Nc2cccc3c2CCCC3)[C@H]1c1ccccc1` [BDH_33619991], the Inhibition percent is given as -0.19%.

As to `COc1cccc([C@@H]2C[C@]3(C)NC(=O)CCCC[C@@H]3N2CC(=O)Nc2cccc(C)c2C)c1` [BDH_33621286], the Inhibition percent worked out at 2.19%.

As for `CC(=O)N[C@@]12CN(C(C)=O)CC[C@@H]1[C@@H](c1ccccc1)N(CC(=O)Nc1cccc(F)c1C)C2` [BDH_33622250], the Inhibition percent is -0.19%.

For `COc1cccc([C@@H]2C[C@]3(C)NC(=O)CCCC[C@@H]3N2CC(=O)NCc2nc3ccccc3n2C)c1` [BDH_33622879], the Inhibition percent was 0.95%.

The record behind these values is PMC9995496, “A screen for MeCP2-TBL1 interaction inhibitors using a luminescence-based assay” (Scientific Reports, 2023).
